Each structure is given as a SMILES string.

Here are results for one compound from article PMC5573538, “Contrasting effects of phosphatidylinositol 4,5‐bisphosphate on cloned TMEM16A and TMEM16B channels” (British Journal of Pharmacology, 2017).

The target of one experiment is T1, TMEM16A (Mus musculus, UniProt Q8BHY3).
T1 construct: gene Ano1; mouse TMEM16A isoform (ac), expressed in HEK-293T cells
T1 sequence (Q8BHY3 1-960): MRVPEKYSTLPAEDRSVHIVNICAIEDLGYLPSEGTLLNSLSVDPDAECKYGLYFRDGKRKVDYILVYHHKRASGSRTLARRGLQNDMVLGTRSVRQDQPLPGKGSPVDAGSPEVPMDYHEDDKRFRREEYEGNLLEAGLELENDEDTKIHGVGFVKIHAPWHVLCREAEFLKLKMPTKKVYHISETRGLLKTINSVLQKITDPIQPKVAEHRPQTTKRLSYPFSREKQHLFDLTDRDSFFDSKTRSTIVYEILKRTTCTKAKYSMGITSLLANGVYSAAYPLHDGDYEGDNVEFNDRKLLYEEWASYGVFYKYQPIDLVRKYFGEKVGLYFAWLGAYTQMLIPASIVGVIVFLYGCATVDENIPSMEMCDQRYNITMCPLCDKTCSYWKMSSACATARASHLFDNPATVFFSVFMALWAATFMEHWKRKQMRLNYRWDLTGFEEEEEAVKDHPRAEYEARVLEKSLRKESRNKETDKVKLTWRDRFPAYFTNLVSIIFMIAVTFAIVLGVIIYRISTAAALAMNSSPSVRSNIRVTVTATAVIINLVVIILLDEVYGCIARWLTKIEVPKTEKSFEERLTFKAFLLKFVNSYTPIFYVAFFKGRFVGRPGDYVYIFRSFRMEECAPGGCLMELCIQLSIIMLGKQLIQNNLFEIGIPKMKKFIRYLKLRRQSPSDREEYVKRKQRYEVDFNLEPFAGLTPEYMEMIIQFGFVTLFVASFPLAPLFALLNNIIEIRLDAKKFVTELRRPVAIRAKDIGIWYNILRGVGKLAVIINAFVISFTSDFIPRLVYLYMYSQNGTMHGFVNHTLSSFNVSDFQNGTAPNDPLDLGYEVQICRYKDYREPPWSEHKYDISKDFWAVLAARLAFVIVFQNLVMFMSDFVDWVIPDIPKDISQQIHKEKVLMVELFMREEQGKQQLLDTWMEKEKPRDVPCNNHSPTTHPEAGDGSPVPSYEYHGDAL
The experiment in a line: inside-out patch clamp, excised patches from HEK-293T cells, +[…] mV, […] Ca2+ (current activation). In kind it is biochemical. To be noted: read-out: K a.

For another experiment, the target named is T2, TMEM16B (Mus musculus, UniProt Q8CFW1).
T2 construct: gene Ano2; mouse TMEM16B isoform A, expressed in HEK-293T cells
T2 sequence (Q8CFW1 1-1002): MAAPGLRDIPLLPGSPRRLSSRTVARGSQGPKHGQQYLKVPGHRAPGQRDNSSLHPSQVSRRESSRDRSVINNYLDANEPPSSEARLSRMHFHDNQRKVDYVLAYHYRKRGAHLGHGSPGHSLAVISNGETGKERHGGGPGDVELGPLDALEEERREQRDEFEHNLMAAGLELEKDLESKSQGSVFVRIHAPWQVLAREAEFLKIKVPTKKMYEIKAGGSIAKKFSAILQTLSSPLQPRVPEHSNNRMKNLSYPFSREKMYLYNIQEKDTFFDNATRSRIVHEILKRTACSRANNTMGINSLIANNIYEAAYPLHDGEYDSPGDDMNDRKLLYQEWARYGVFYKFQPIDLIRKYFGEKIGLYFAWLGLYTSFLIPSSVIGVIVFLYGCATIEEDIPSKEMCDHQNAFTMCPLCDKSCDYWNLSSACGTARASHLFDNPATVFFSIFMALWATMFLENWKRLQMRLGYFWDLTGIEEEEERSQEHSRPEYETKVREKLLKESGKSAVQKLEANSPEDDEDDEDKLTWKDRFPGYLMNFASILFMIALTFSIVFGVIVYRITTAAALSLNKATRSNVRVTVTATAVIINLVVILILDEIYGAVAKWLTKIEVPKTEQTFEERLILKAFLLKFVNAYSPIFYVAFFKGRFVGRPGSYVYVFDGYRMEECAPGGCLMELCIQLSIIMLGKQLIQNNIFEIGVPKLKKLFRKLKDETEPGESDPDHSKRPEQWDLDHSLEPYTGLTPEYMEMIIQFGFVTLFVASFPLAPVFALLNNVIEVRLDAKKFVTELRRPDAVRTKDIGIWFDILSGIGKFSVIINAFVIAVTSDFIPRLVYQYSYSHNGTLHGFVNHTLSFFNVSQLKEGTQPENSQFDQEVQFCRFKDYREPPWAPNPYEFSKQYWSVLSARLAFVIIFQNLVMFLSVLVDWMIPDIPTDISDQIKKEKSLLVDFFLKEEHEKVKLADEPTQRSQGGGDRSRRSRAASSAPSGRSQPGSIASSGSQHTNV
Kind of experiment: inside-out patch clamp, excised patches from HEK-293T cells, +[…] mV, […] Ca2+ (partial current inhibition). In kind it is biochemical. To be noted: read-out: K i.

In the case of `CCCCCCCC(=O)OC[C@H](COP(=O)(O)O[C@@H]1[C@H](O)[C@H](O)[C@@H](OP(=O)(O)O)[C@H](OP(=O)(O)O)[C@H]1O)OC(=O)CCCCCCC` [diC8‐PIP2], the EC50 on TMEM16A is 53 ± 9 µM. Moreover, the IC50 on TMEM16B came to 46 ± 2 µM.
